The values below come from EP4772506A1, “COMPOUND FOR REGULATING ACTIVITY OF MICRORNA-124” (Jiangsu Chia Tai Fenghai Pharmaceutical Co., Ltd., priority 2023, dated 2025).

The test system of one data set is miR124. The data set can be described thus: Effect of the compound on miR124 upregulation in PBMCs (qPCR, U6 as internal reference). The format is cell-based, human. Particulars: miR-124 expression, 5 µM, 6 days, batches normalized. On the technique in general: Real-time PCR tracks product formation cycle by cycle.
For data set [1], the system named is dextran sulfate sodium (DSS)-induced ulcerative colitis. The data set is described as follows: Preventive and therapeutic effects on DSS-induced ulcerative colitis (UC) in mice. In kind it is in vivo, C57BL/6 mice. The conditions noted are these: 50 mg/kg qd by gavage; for relative body weight (% of initial): mean ± SEM. The method, then: The preventive and therapeutic effects of the positive drug ABX464 and Compound 23 of the present disclosure on dextran sulfate sodium (DSS)-induced ulcerative colitis were evaluated using a DSS-induced ulcerative colitis (UC) model.
Female C57BL/6 mice (20-22 g) were randomly divided into 7 groups according to body weight after adaptive feeding, as shown in Table 4. On day 1, the mice were switched to 3% DSS feeding. After 10 days of DSS feeding, they were switched back to normal drinking water until day 13. From day 1 to day 13, the mice were continuously administered the corresponding solvents and drugs by gavage. Body weight changes were recorded daily from day 1 to day 13. On day 13, after recording body weight, the mice were dissected to measure colon length. The preventive and therapeutic effects of the test drug on ulcerative colitis in mice were evaluated based on relative body weight change rate and colon length. Table 4. Experimental animal grouping and model induction period

Data set [2] can be described thus: Pharmacokinetic study in rats (plasma, LC-MS/MS). Particulars: for AUC(0-t) / Cmax / MRT inf / Tmax / half-life: rat; for F: absolute bioavailability, SD male rats, p.o. 25 mg/kg vs i.v. 1 mg/kg.
Protocol: • (1) SD male rats were used as test animals.
The administration solvent was a physiological saline solution containing 10% DMSO + 10% polyoxyl castor oil (Cremophor EL). Fasting was maintained for approximately 12 hours prior to administration, and free feeding was allowed 4 hours post-administration, with no water restriction. […] After gently inverting the tube to fully mix the anticoagulant EDTA-K2 with the blood, the tube was immediately placed on wet ice. The plasma was separated by centrifugation immediately after blood collection under the following centrifugation conditions: 4°C, 3500 rpm, and 5 min. The upper plasma layer was transferred and stored at -80°C until sample analysis. […] The pharmacokinetic parameters were calculated from the sample analysis results using WinNonlin software.
Data set [3] can be described thus: Pharmacokinetic study in beagle dogs (plasma, LC-MS/MS). In kind it is in vivo. As to the method:
The pharmacokinetic characteristics of test compound 45 was investigated in beagle dogs.
The gavage group was fasted for no less than 12 hours before administration, with free access to water. After 4 h of administration, the dogs were fed uniformly. […] The upper plasma layer was transferred and stored at -20°C until sample analysis. The concentration of the test compound in dog plasma was determined using the LC-MS/MS method. Pharmacokinetic parameters were fitted using WinNonlin software, and absolute bioavailability was calculated. Table 6. Pharmacokinetic parameters of compounds in beagle dogs

[4] abbreviates: male, Sprague-Dawley (SD), plasma, po, 20 mg/kg.

Protocol for miR124: The effect of test compounds on miR124 expression levels was evaluated in human peripheral blood mononuclear cells (PBMCs). […] Test compounds (final concentration: 5 µM) were added for treatment at 37°C, 5% CO2 for 6 days, with medium replacement on day 3. The control group was treated with an equal volume of DMSO under the same conditions.
RNA Extraction: On day 6, cells were collected in a 15 mL centrifuge tube and centrifuged at 400g for 10 min, followed by supernatant removal. […] The upper RNA layer was aspirated into a clean 1.5 mL centrifuge tube (RNase-free), an equal volume of isopropanol was added, and left at room temperature for 10 min to precipitate RNA. Centrifugation at 4°C and 12000g for 10 min yielded a small white pellet at the tube bottom.
Fluorescent quantitative PCR reaction: miRNA quantification was performed using SYBR Green I intercalating fluorescence method, with simultaneous detection of the housekeeping gene U6 transcript level as internal reference.

By AUC(0-t) is commonly meant the area under the concentration-time curve up to a stated or last time point. Low readings indicate less exposure, high ones more exposure. By Cmax is commonly meant the maximum level reached in the sampled fluid or tissue. A word on the MRT inf: it is the average time that molecules of a dose stay in the body. Usually Tmax stands for the time from dosing to the highest level. One may read the half-life as the time in which the quantity being followed falls by half. The low end stands for rapid decline, the high end for slow decline. As to `FC(F)(F)Oc1ccc(Nc2ccc3cccc(Cl)c3n2)cc1` [ABX464, reference compound], in the data set on miR124, the “Average fold change compared to DMSO treatment, Average value” was found to be 6.91. In data set [1] (by day 10), this compound gave a weight loss of 6.02%. Further, the “relative body weight (% of initial)” value worked out at 100±0.00% in data set [1] (day 1); 101.6± 0.45% in data set [1] (day 2); 101.9± 0.47% in data set [1] (day 3); 101.9± 0.62% in data set [1] (day 4); 101.1± 0.82% in data set [1] (day 5); 98.5±0.79% in data set [1] (day 6). Also, the “relative body weight (% of initial)” value in data set [1] (day 7) is 95.6±1.09%; in data set [1] (day 8), 93.5± 1.35%; in data set [1] (day 9), 93.0±1.33%; in data set [1] (day 10) it was 94.0± 1.27 %; in data set [1] (day 11), 92.4± 2.22 %; in data set [1] (day 12) it was 92.7±2.19%. For the same compound, in data set [1] (day 13), the “relative body weight (% of initial)” value was 92.0±2.52%. In data set [1] (day 13), this compound came in with a Colon length Mean of 7.72 cm. For the same compound, the “Relative colon length (%)” value in data set [1] (of the control group, day 13, 50 mg/kg) is reported as 96.5%. The compound also returned an AUC(0-t) in data set [2] (setting [4]) of 2310 ng·h/mL. In data set [2] (setting [4]), this compound displayed a Cmax of 727 ng/mL. This compound also had an MRT inf in data set [2] (setting [4]) of 2.73 h. In data set [2] (setting [4]), the Tmax came to 2 h. This compound also showed a half-life in data set [2] (setting [4]) of 0.86 h.
In data set [2], `CN(C)CCN(C)c1cc(Cl)cc2nc(Nc3ccc(OC(F)(F)F)cc3)ncc12` [Compound 44] returned an F of 34.3%. In data set [2] (in vivo, iv, 1 mg/kg), this compound had an AUC(0-t) of 650 ng·h/mL, an MRT inf of 8.9 h and a half-life of 15.1 h. In data set [2] (in vivo, po, 25 mg/kg), the AUC(0-t) amounted to 5570 ng·h/mL, the Cmax was 389 ng/mL, the MRT inf turned out to be 8.2 h and the Tmax stood at 6 h. This compound also gave a half-life in data set [2] (in vivo, po, 25 mg/kg) of 8.7 h.
In the case of `FC(F)(F)Oc1ccc(Nc2ncc3c(N4CCOCC4)cc(Cl)cc3n2)cc1` [Compound 45], the F in data set [3] (absolute bioavailability, p.o. 6 mg/kg vs i.v. 1 mg/kg) amounted to 10.7%; in data set [2] it was 27.6%. The AUC(0-t) in data set [3] (dog, in vivo, iv, i.v. 1mg/kg) was determined as 1560 ng·h/mL; in data set [3] (dog, in vivo, po, p.o. 6 mg/kg), 990 ng·h/mL; in data set [2] (in vivo, iv, 1 mg/kg), 1180 ng·h/mL; in data set [2] (in vivo, po, 25 mg/kg) it was 8400 ng·h/mL. Further, the MRT inf in data set [3] (dog, in vivo, iv, i.v. 1mg/kg) is 3.56 h; in data set [3] (dog, in vivo, po, p.o. 6 mg/kg), 5.9 h; in data set [2] (in vivo, iv, 1 mg/kg), 1.5 h; in data set [2] (in vivo, po, 25 mg/kg) it was 3.2 h. Further, the half-life is 8.88 h in data set [3] (dog, in vivo, iv, i.v. 1mg/kg); 7.18 h in data set [3] (dog, in vivo, po, p.o. 6 mg/kg); 2.2 h in data set [2] (in vivo, iv, 1 mg/kg); 5.4 h in data set [2] (in vivo, po, 25 mg/kg). The Cmax in data set [3] (dog, in vivo, po, p.o. 6 mg/kg) stood at 204 ng/mL; in data set [2] (in vivo, po, 25 mg/kg), 2550 ng/mL. In addition, the Tmax amounted to 2 h in data set [3] (dog, in vivo, po, p.o. 6 mg/kg) and 2 h in data set [2] (in vivo, po, 25 mg/kg).
